Like-named read-outs stand apart in the source and are kept apart here.
What was measured:
[1] = biological target: GSK3b (GST-full length GSK3b) (Homo sapiens (Human), UniProt P49841); assay: GSK3b TR-FRET kinase assay; format: biochemical
In short: (§1)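 Readout: anti-pSer641 Tb antibody/streptavidin-d2 signal after 60 min, expressed as 665/615 ratio and fitted versus log concentration for IC50. Enzyme: 1 nM GST-GSK3 (α or β), compound-preincubated 30 min. Conditions: pH 7.5 Tris buffer with MgCl2, DTT, BSA; ATP at 4 or 2 μM, or 1 mM; 100 min.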

[2] = biological target: GSK3α (GST-full length GSK3α) (Homo sapiens (Human), UniProt P49840); assay: GSK3α TR-FRET kinase assay; format: biochemical
In short: as §1

[3] = 1 nM GSK3b, 2 μM ATP, 30 minute preincubation, Table 16, read-out: GSK3-B TR-FRET BIOCHEMICAL (TR-FRET)
[4] = 1 nM GSK3α, 4 μM ATP, 30 minute preincubation, Table 16, read-out: GSK3-A TR-FRET BIOCHEMICAL (TR-FRET)
[5] = 1 nM GSK3b, 2 μM ATP, 30 minute preincubation, read-out: GSK3-B TR-FRET BIOCHEMICAL (TR-FRET), IC50
[6] = 1 nM GSK3α, 4 μM ATP, 30 minute preincubation, read-out: GSK3-A TR-FRET BIOCHEMICAL (TR-FRET), IC50
[7] = read-out: GSK3-B (TR-FRET 1 mM ATP), GMean, IC50, 1 mM ATP, geometric mean
[8] = read-out: GSK3-A (TR-FRET 1 mM ATP), GMean, IC50, 1 mM ATP, geometric mean
[9] = GSK3-B (TR-FRET 1 mM ATP), GMean, IC50, 1 mM ATP, geometric mean
[10] = GSK3-A (TR-FRET 1 mM ATP), GMean, IC50, 1 mM ATP, geometric mean

GSK3α (GST-full length GSK3α), sequence (P49840 whole entry): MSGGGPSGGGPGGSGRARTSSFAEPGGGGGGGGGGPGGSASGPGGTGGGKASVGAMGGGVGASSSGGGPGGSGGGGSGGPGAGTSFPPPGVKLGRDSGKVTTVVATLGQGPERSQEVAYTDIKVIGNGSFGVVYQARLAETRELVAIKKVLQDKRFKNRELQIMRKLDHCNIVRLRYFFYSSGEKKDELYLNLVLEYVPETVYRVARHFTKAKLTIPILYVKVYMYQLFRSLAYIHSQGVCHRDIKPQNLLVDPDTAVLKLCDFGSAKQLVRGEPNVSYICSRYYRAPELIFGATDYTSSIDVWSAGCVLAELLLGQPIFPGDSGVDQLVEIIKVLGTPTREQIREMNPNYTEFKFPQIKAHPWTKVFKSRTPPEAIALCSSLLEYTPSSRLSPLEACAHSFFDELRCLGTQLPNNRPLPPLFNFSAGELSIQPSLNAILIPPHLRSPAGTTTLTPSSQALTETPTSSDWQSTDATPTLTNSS
GSK3b (GST-full length GSK3b), sequence (P49841 whole entry): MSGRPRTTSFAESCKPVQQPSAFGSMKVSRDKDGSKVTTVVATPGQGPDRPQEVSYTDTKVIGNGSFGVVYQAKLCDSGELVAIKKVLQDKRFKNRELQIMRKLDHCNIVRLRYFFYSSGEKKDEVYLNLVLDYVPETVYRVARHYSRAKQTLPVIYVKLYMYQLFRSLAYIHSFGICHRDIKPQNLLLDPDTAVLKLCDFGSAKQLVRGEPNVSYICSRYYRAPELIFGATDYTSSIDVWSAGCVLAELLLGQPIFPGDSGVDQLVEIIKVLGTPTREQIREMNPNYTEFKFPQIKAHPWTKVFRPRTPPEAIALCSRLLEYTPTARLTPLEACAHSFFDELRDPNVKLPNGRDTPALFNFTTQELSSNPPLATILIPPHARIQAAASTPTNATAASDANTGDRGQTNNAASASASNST

SMILES	IC50 [1, 3] [nM]	IC50 [2, 4] [nM]	IC50 [1, 5] [nM]	IC50 [2, 6] [nM]	other results
CCC1(c2cccc(S(=O)(=O)C3CCCCC3)c2)C2=C(CC(C)(C)CC2=O)Nc2n[nH]cc21 (stereo not drawn) [Compound 943547]	> 5000	1000 to 5000			
CC1(C)CC(=O)C2=C(C1)Nc1n[nH]cc1C21CCC(n2cnnc2)CC1 (stereo not drawn) [Compound 943894]	100 to 1000	≤ 100			
Cc1noc(C2CCC3(CC2)C2=C(CC(C)(C)CC2=O)Nc2n[nH]cc23)n1 (stereo not drawn) [Compound 943895]	100 to 1000	100 to 1000			
C[C@H]1C[C@@H]2C[C@]3(C[C@@H]2C1)C1=C(CC(C)(C)CC1=O)Nc1n[nH]cc13 [Compound 943896]			≤ 100	≤ 100	
C[C@@H]1C[C@@H]2C[C@]3(C[C@@H]2C1)C1=C(CC(C)(C)CC1=O)Nc1n[nH]cc13 [Compound 943898]			≤ 100	≤ 100	
CCC1(c2cccc(-c3cnn(C)c3)c2)C2=C(CC(C)(C)NC2=O)Nc2n[nH]cc21 (stereo not drawn) [Compound 943912]			1000 to 5000	≤ 100	
CC[C@]1(c2cccc(-c3ccncc3C(F)(F)F)c2)C2=C(CC(C)(C)CC2=O)Nc2n[nH]cc21 [Compound 943913]	≤ 100	≤ 100			IC50 [1, 7]: 100 to 1000 nM; IC50 [2, 8]: ≤ 100 nM
CC1(C)CC(=O)C2=C(C1)Nc1n[nH]cc1C21CN(CC2CCCC2)C1 [Compound 943914]					IC50 ([1]; 1 nM GSK3b, 2 μM ATP, 30 minute preincubation, Table 16, read-out: GSK3-B TR-FRET BIOCHEMICAL (TR-FRET), IC50): > 5000 nM; IC50 ([2]; 1 nM GSK3α, 4 μM ATP, 30 minute preincubation, Table 16, read-out: GSK3-A TR-FRET BIOCHEMICAL (TR-FRET), IC50): > 5000 nM
CC[C@]1(c2cccc(-c3ccnc(C(F)F)c3)c2)C2=C(CC(C)(C)CC2=O)Nc2n[nH]cc21 [Compound 943919]	100 to 1000	≤ 100			
CC1(C)CC(=O)C2=C(C1)Nc1n[nH]cc1[C@@]21COC2(CN(C(=O)c3ccccc3)C2)C1 [Compound 943955]			≤ 100	≤ 100	
CC1(C)CC(=O)C2=C(C1)Nc1n[nH]cc1C21COC2(CN(C(=O)c3ccccc3)C2)C1 (stereo not drawn) [Compound 943956]			1000 to 5000	100 to 1000	
CC1(C)CC(=O)C2=C(C1)Nc1n[nH]cc1C21COC2(CN(C(=O)C3CCCC3)C2)C1 (stereo not drawn) [Compound 943958]			1000 to 5000	100 to 1000	
CC1(C)CC2=C(C(=O)N1)C1(CCN(S(C)(=O)=O)CC1)c1c[nH]nc1N2 [Compound 943959]			100 to 1000	≤ 100	
CC1(C)CC2=C(C(=O)N1)C1(CCN(S(=O)(=O)C3CCCC3)CC1)c1c[nH]nc1N2 [Compound 943960]			≤ 100	≤ 100	IC50 [1, 9]: 100 to 1000 nM; IC50 [2, 10]: 100 to 1000 nM
Cn1ccc(S(=O)(=O)N2CCC3(CC2)C2=C(CC(C)(C)NC2=O)Nc2n[nH]cc23)n1 [Compound 943961]	≤ 100	≤ 100	≤ 100	≤ 100	IC50 [1, 9]: > 5000 nM; IC50 [2, 10]: 100 to 1000 nM
COc1cccc(S(=O)(=O)N2CCC3(CC2)C2=C(CC(C)(C)CC2=O)Nc2n[nH]cc23)c1 [Compound 943962]	100 to 1000	≤ 100	100 to 1000	≤ 100	
CC1(C)CC2=C(C(=O)N1)C1(CCN(S(=O)(=O)c3ccc(F)cc3)CC1)c1c[nH]nc1N2 [Compound 943963]			≤ 100	≤ 100	
CC[C@@]1(c2cccc(N(C)c3ncccn3)c2)C2=C(CC(C)(C)NC2=O)Nc2n[nH]cc21 [Compound 943964]			≤ 100	≤ 100	IC50 [1, 7]: 1000 to 5000 nM; IC50 [2, 8]: 100 to 1000 nM
CC[C@]1(c2cccc(N(C)c3ncccn3)c2)C2=C(CC(C)(C)NC2=O)Nc2[nH]ncc21 [Compound 943965]			> 5000	100 to 1000	
CCC1(c2cccc(-c3cc(C)nn3C)c2)C2=C(CC(C)(C)NC2=O)Nc2n[nH]cc21 (stereo not drawn) [Compound 943966]			100 to 1000	≤ 100	
CC[C@]1(c2cccc(-c3cc(C)nn3C)c2)C2=C(CC(C)(C)NC2=O)Nc2n[nH]cc21 [Compound 943967]			> 5000	> 5000	
CCC1(c2cccc(-c3ccnc(OC(F)(F)F)c3)c2)C2=C(CC(C)(C)CC2=O)Nc2n[nH]cc21 (stereo not drawn) [Compound 943988]	1000 to 5000	100 to 1000			
CCC1(c2cccc(-c3ccncc3C)c2)C2=C(CC(C)(C)CC2=O)Nc2n[nH]cc21 (stereo not drawn) [Compound 943990]	≤ 100	≤ 100			IC50 [1, 7]: 100 to 1000 nM; IC50 [2, 8]: ≤ 100 nM
CCC1(c2cccc(-c3ccnc(O)c3)c2)C2=C(CC(C)(C)CC2=O)Nc2n[nH]cc21 (stereo not drawn) [Compound 943992]	100 to 1000	≤ 100			

Second part, led by results:

IC50 [1, 3] [nM]	IC50 [2, 4] [nM]	IC50 [1, 5] [nM]	IC50 [2, 6] [nM]	SMILES	other results
≤ 100	≤ 100			CCC1(c2cccc(-c3cnnc(C)c3)c2)C2=C(CC(C)(C)CC2=O)Nc2n[nH]cc21 (stereo not drawn) [Compound 943994]	IC50 [1, 7]: 1000 to 5000 nM; IC50 [2, 8]: 100 to 1000 nM
≤ 100	≤ 100			CCC1(c2cccc(-c3c(C)nnn3C)c2)C2=C(CC(C)(C)CC2=O)Nc2n[nH]cc21 (stereo not drawn) [Compound 943996]	IC50 [1, 7]: 100 to 1000 nM; IC50 [2, 8]: ≤ 100 nM
≤ 100	≤ 100			CCC1(c2cccc(S(=O)(=O)C3COC3)c2)C2=C(CC(C)(C)CC2=O)Nc2n[nH]cc21 (stereo not drawn) [Compound 944017]	
≤ 100	≤ 100			CCC1(c2cccc(S(=O)(=O)C3CCOC3)c2)C2=C(CC(C)(C)CC2=O)Nc2n[nH]cc21 (stereo not drawn) [Compound 944018]	
≤ 100	≤ 100			CCC1(c2cccc(S(=O)(=O)C3CC(F)(F)C3)c2)C2=C(CC(C)(C)CC2=O)Nc2n[nH]cc21 (stereo not drawn) [Compound 944019]	
		100 to 1000	≤ 100	CCC1(c2cccc(-c3cn[nH]c3)c2)C2=C(CC(C)(C)NC2=O)Nc2n[nH]cc21 (stereo not drawn) [Compound 944022]	
100 to 1000	≤ 100			CCc1cccc(N(C)c2cccc(C3(CC)C4=C(CC(C)(C)CC4=O)Nc4n[nH]cc43)c2)n1 (stereo not drawn) [Compound 944023]	
100 to 1000	≤ 100			CCC1(c2cccc(-c3cnco3)c2)C2=C(CC(C)(C)CC2=O)Nc2n[nH]cc21 (stereo not drawn) [Compound 944025]	
≤ 100	≤ 100			CCC1(c2cccc(-c3cncn3C(C)C)c2)C2=C(CC(C)(C)CC2=O)Nc2n[nH]cc21 (stereo not drawn) [Compound 944026]	
		100 to 1000	≤ 100	CCC1(c2cccc(-c3cnn(C)c3C)c2)C2=C(CC(C)(C)NC2=O)Nc2n[nH]c(C)c21 (stereo not drawn) [Compound 944028]	
100 to 1000	≤ 100			CCC1(c2cccc(-c3ccnc(C(C)O)c3)c2)C2=C(CC(C)(C)CC2=O)Nc2n[nH]cc21 (stereo not drawn) [Compound 944029]	
		≤ 100	≤ 100	CCC1(c2cccc(-c3cn(C)nc3C)c2)C2=C(CC(C)(C)NC2=O)Nc2n[nH]cc21 (stereo not drawn) [Compound 944030]	
≤ 100	≤ 100			CC[C@]1(c2cccc(-c3ccnc4ccccc34)c2)C2=C(CC(C)(C)CC2=O)Nc2n[nH]cc21 [Compound 944031]	
≤ 100	≤ 100			CCC1(c2cccc(-c3cc(OC)ncc3F)c2)C2=C(CC(C)(C)CC2=O)Nc2n[nH]cc21 (stereo not drawn) [Compound 944032]	IC50 [1, 7]: 1000 to 5000 nM; IC50 [2, 8]: 100 to 1000 nM
≤ 100	≤ 100			CCC1(c2cccc(-c3ccnc4c3CCCC4)c2)C2=C(CC(C)(C)CC2=O)Nc2n[nH]cc21 (stereo not drawn) [Compound 944033]	IC50 [1, 7]: 100 to 1000 nM; IC50 [2, 8]: ≤ 100 nM
> 5000	1000 to 5000			CC[C@@]1(c2cccc(-c3cc(OC)ncc3F)c2)C2=C(CC(C)(C)CC2=O)Nc2n[nH]cc21 [Compound 944035]	
> 5000	1000 to 5000			CC[C@@]1(c2cccc(-c3ccnc4c3CCCC4)c2)C2=C(CC(C)(C)CC2=O)Nc2n[nH]cc21 [Compound 944036]	
		100 to 1000	≤ 100	CC1(C)CC(=O)C2=C(C1)Nc1n[nH]cc1C21COC2(CN(C(=O)C3CCC4(CC3)COC4)C2)C1 (stereo not drawn) [Compound 944075]	
≤ 100	≤ 100			CCC1(c2cccc(N(C)c3nccc(C)n3)c2)C2=C(CC(C)(C)CC2=O)Nc2n[nH]cc21 (stereo not drawn) [Compound 945328]	IC50 [1, 7]: 100 to 1000 nM; IC50 [2, 8]: ≤ 100 nM
1000 to 5000	100 to 1000			CC[C@]1(c2cccc(N(C)c3nccc(C)n3)c2)C2=C(CC(C)(C)CC2=O)Nc2n[nH]cc21 [Compound 945329]	
		> 5000	1000 to 5000	CCC1(c2cccc(C(F)(F)F)c2)C2=C(CC(c3ccccc3)NC2=O)Nc2n[nH]cc21 (stereo not drawn) [Compound 945363]	
		> 5000	> 5000	CC[C@]1(c2cccc(C(F)(F)F)c2)C2=C(C[C@H](c3ccccc3)NC2=O)Nc2n[nH]cc21 [Compound 945364]	
		1000 to 5000	100 to 1000	CCC1(c2cccc(C(F)(F)F)c2)C2=C(CN(C)C2=O)Nc2n[nH]cc21 (stereo not drawn) [Compound 945367]	
		> 5000	> 5000	CC[C@]1(c2cccc(C(F)(F)F)c2)C2=C(CN(C)C2=O)Nc2n[nH]cc21 [Compound 945368]	

Reference: patent US20250313563A1, “GLYCOGEN SYNTHASE KINASE 3 INHIBITORS AND USES THEREOF” (The Broad Institute, Inc., priority 2022, published 2025)
